Data published in the NIST ThermoML archive (doi:10.1016/j.jct.2017.09.012).
± gives the expanded uncertainty stated by the source.

Assay: osmotic coefficient (dimensionless); mn = molality of the nth substance listed, in mol/kg
Settings: 101 kPa, Liquid, isopiestic method

O=S(=O)([O-])[O-].[Zn+2] [zinc sulfate] + O
osmotic coefficient (288.15 K, m1 = 3.567): 1.09 ± 0.03 | osmotic coefficient (288.15 K, m1 = 3.787): 1.19 ± 0.033 | osmotic coefficient (288.15 K, m1 = 3.997): 1.29 ± 0.03 | osmotic coefficient (298.15 K, m1 = 3.223): 0.935 ± 0.009 | osmotic coefficient (298.15 K, m1 = 3.836): 1.16 ± 0.013 | osmotic coefficient (308.15 K, m1 = 3.614): 1.019 ± 0.005 | osmotic coefficient (308.15 K, m1 = 3.962): 1.144 ± 0.009 | osmotic coefficient (308.15 K, m1 = 4.295): 1.27 ± 0.015 | osmotic coefficient (313.15 K, m1 = 4.014): 1.133 ± 0.007 | osmotic coefficient (313.15 K, m1 = 4.25): 1.217 ± 0.009 | osmotic coefficient (313.15 K, m1 = 4.47): 1.302 ± 0.013
